Entries after “also recorded” stand apart in the source; their conditions may differ.
Assays:
[1] = test system: Parkinson's Disease; details: Phase II clinical trial; Rascol et al., 2008; cited from earlier work
[2] = trial for use in weight loss; Astrup et al., 2008; cited from earlier work
[3] = test system: kidney tubules; details: cynomolgus monkeys; Guha et al., 2011; cited from earlier work
[4] = Phase II, compared to placebo; Sepracor Press Release 2009; cited from earlier work
[5] = biological target: T1, serotonin transporter (Homo sapiens, UniProt P31645); details: PET occupancy study at the doses examined; DeLorenzo et al., 2011; cited from earlier work
T1 construct: host or cells: in vivo brain (PET)

[6] = test system: alcohol-preferring (P) rat; test: binge operant responding experiment in alcohol-preferring (P) rats; format: in vivo
Procedure: P rats were obtained from the Alcohol Research Center at Indiana University School of Medicine. Male P rats were used in all experiments, and were approximately 4-5 months of age and weighed between 420 and 580 g at the outset. Animals were housed individually at an ambient temperature of 21° C., with a normal 12 hour light/dark cycle. All rats were provided ad libitum access to food and water, except during training for operant self-administration studies, during which rats were fluid deprived 23 hr daily during the first 5 days of the training phase. Thereafter, these animals were maintained on ad libitum food and water. All training and experimental sessions for all subjects took place between 9 a.m. and 5 p.m. […] Deionized water was administered as the control injection. Behavioral testing was conducted in standard operant chambers (Coulbourn Instruments, Allentown, Pa.) equipped with two removable levers and two dipper fluid delivery systems enclosed in sound-attenuated cubicles as previously described (Cook et al., 2004). All dipper presentations provided a 1.5-sec access to a 0.1-ml dipper, followed by a 3-sec time out period. […] Responses and reinforcements were recorded and controlled using the 4.0 Coulbourn […] operant software package. […]

[7] = test system: high-alcohol preferring (HAP) mouse; test: binge operant responding experiment in high-alcohol preferring (HAP) mice; format: in vivo; details: intraperitoneal 25, 50 or 75 mg/kg, FIG. 2
Procedure: The efficacy of (+)-1-(3,4-dichlorophenyl)-3-azabicyclo[3.1.0]hexane to reduce alcohol-drinking behavior was evaluated in the genetically selected high-alcohol preferring (HAP) mouse, an animal model for human alcohol abuse. The effects of (+)-1-(3,4-dichlorophenyl)-3-azabicyclo[3.1.0]hexane on HAP mice were examined in a binge operant responding experiment, using standard protocols.
HAP mice were obtained from the Alcohol Research Center at Indiana University School of Medicine. Animals were housed individually at an ambient temperature of 21° C., with a normal 12 hour light/dark cycle. […]
Behavioral testing was conducted in standard operant chambers (Coulbourn Instruments, Allentown, Pa.) equipped with two removable levers and two dipper fluid delivery systems enclosed in sound-attenuated cubicles as previously described (Cook et al., 2004). […] Responses and reinforcements were recorded and controlled using the 4.0 Coulbourn L2T2 operant software package. […]
For the alcohol and sucrose maintained responding studies, (+)-1-(3,4-dichlorophenyl)-3-azabicyclo[3.1.0]hexane [25, 50, or 75 mg/kg] was injected into each HAP mouse, followed by immediate placement in an operant chamber. […] Six HAP mice were evaluated with each concentration of (+)-1-(3,4-dichlorophenyl)-3-azabicyclo[3.1.0]hexane [25, 50, or 75 mg/kg].

[8] = patients with a preexisting cardiovascular condition, FDA News Release 2010, James et al.; cited from earlier work

T1 sequence (P31645 whole entry): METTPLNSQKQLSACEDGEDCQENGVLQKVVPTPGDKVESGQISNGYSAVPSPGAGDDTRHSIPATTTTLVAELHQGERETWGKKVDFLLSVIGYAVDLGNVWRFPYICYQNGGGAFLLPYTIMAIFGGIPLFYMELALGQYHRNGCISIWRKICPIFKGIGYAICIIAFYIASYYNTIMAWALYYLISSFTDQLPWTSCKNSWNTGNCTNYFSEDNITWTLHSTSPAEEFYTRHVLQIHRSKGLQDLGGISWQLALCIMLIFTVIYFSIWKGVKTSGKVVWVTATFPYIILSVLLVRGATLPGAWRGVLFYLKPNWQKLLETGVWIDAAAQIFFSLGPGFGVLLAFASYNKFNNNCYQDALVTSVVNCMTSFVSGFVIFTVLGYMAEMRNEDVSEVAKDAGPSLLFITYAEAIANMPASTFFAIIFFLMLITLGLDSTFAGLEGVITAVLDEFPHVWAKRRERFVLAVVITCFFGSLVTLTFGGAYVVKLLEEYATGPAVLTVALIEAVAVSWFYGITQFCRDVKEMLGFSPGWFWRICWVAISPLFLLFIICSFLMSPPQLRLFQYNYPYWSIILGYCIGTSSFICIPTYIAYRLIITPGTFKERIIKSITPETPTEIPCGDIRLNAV

CCOC[C@@H]1[C@@H](c2ccc(Cl)c(Cl)c2)C[C@@H]2CC[C@H]1N2C [Tensofensine]
efficacy in treatment of Parkinson's Disease [1]: not be efficacious | adverse events [2]: gastrointestinal adverse events (dry mouth, nausea, abdominal pain, constipation, diarrhea)

CNC[C@H](c1ccc2ccccc2c1)[C@H](O)c1ccccc1 [PRC200-SS]
nephrotoxicity [3]: acute degenerative damage of kidney tubules

N[C@@H]1CC[C@@H](c2ccc(Cl)c(Cl)c2)c2ccccc21 [SEP-225289]
primary efficacy endpoint as antidepressant [4]: did not meet the primary efficacy endpoint compared to placebo | serotonin transporter occupancy [5]: too low at the doses examined to produce an antidepressant effect

Clc1ccc([C@]23CNC[C@H]2C3)cc1Cl [(+)-1-(3,4-dichlorophenyl)-3-azabicyclo[3.1.0]hexane]
effect on sucrose consumption (sucrose maintained responding) ([6]; P rats maintained on sucrose water, oral 3.1-50 mg/kg, 90 min operant session, FIG. 1B): lack of effect | effect on ethanol consumption (alcohol maintained responding) ([6]; P rats, oral 3.1, 6.3, 12.5, 25 or 50 mg/kg 25 min before 90 min operant session, EtOH 10% v/v, FR4, FIG. 1A): demonstrates a dose response; also recorded: decrease in alcohol consumption that was dose-dependent | effect on sucrose consumption (control sucrose responding) ([7]; HAP mice maintained on sucrose water): lack of effect | effect on alcohol consumption (ethanol responding) ([7]; HAP mice, 90 min operant session, EtOH 10% v/v, FR4): demonstrates a dose response; also recorded: dose-dependent decrease in alcohol consumption

CC(C)CC(N(C)C)C1(c2ccc(Cl)cc2)CCC1 (stereo not shown) [sibutramine]
risk of serious heart events (non-fatal heart attack, non-fatal stroke) [8]: significant increase in the risk of serious heart events

Source: patent US20170216251A1, “USE OF (+)-1-(3,4-DICHLOROPHENYL)-3-AZABICYCLO[3.1.0]HEXANE TO TREAT ADDICTIVE AND ALCOHOL-RELATED DISORDERS” (priority 2011, published 2017)
